Measured values reported in publication PMC8876616, “Drug Design, Synthesis and Biological Evaluation of Heterocyclic Molecules as Anti-Inflammatory Agents” (Molecules, 2022).
Several values for one entry are separate records, joined by “and”; a condition that tells them apart may be missing. Equal values may be shown once. Entries after “also recorded” stand apart in the source; their conditions may differ.

How the values were obtained:
human recombinant COX-2 = biological target: T1, human recombinant COX-2 (Homo sapiens, UniProt P35354); assay: In vitro COX-2 colorimetric enzyme assay (Cayman kit, TMPD at 590 nm); format: biochemical; conditions: for Selectivity (ratio of IC50 for COX-1 to COX-2): IC50 COX-1 divided by IC50 COX-2; for IC50: human recombinant COX-2; for COX-2 selectivity, in words: selectivity ratio compared with indomethacin / other derivatives; for COX-2 inhibition, in words: compared with indomethacin / other derivatives
T1 construct: purchased Cayman Chemicals, Ann Arbor, MI, USA
T1 sequence (P35354 18-604): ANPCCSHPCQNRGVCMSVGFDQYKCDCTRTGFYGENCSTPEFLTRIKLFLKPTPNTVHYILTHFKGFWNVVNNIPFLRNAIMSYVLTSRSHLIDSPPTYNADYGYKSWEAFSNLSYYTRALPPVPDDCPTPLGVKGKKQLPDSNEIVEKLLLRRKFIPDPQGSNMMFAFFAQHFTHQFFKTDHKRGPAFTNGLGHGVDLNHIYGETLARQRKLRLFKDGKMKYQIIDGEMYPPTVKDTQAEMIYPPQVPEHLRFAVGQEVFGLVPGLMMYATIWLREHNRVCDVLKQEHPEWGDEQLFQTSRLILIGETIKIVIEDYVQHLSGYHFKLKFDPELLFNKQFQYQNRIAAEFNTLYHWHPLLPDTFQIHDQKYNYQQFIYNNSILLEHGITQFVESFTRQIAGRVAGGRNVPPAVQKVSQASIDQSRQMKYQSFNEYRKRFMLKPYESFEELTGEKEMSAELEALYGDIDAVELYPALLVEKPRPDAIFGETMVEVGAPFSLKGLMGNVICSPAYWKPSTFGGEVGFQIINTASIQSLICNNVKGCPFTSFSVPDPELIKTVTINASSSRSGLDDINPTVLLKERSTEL
Experimental: (§1) The assay procedure was followed as per the manufacturer’s protocol with slight modifications. The screening kits consolidate ovine COX-1 as well as human recombinant COX-2 compounds to screen isozyme-specific inhibitors. The test investigates the peroxidase activity by projecting the presence of oxidized TMPD (N, N, N′, N′- tetramethyl-p-phenylenediamine) at 590 nm. The COX-2 selectivity was measured as a ratio of IC50 for COX-1 divided by COX-2 [15].

ovine COX-1 = biological target: T2, ovine COX-1 (Ovis aries, UniProt P05979); assay: In vitro COX-1 colorimetric enzyme assay (Cayman kit, TMPD at 590 nm); format: biochemical
T2 construct: purchased Cayman Chemicals, Ann Arbor, MI, USA
T2 sequence (P05979 25-600): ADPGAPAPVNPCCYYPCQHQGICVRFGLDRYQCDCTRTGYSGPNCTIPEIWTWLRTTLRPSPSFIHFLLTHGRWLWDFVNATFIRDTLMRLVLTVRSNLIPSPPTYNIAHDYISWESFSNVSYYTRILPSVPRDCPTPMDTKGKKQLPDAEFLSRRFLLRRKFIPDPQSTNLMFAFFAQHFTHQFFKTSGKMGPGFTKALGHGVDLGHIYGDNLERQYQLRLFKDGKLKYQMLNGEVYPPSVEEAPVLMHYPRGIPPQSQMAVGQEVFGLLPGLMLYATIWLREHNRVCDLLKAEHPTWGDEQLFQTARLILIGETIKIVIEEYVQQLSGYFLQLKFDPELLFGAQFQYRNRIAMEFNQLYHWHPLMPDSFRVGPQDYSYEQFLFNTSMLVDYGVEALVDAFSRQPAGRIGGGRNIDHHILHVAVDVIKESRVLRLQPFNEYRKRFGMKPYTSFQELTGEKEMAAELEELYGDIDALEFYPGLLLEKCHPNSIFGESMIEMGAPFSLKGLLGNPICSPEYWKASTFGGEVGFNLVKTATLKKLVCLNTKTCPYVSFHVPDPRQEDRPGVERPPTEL
Experimental: as §1

[1] = test system: carrageenan-induced paw oedema; assay: Carrageenan-induced rat paw oedema; format: in vivo, Wistar rats; conditions: 2.57 mg/kg oral, 1 h before carrageenan; paw volume after 5 h
Experimental: All the procedures performed followed the Committee for Control and Supervision of Experiments on Animals (CPCSEA), the Ministry of Social Justice and Empowerment, the Government of India. The in vivo study was performed using Wistar rats (250-300 gm body weight) obtained from the Torrent Research Center, […]. Animals were divided into five groups containing six rats per group and housed under controlled conditions. The temperature and relative humidity of the animal house were kept at 23 ± 2 °C and 55 ± 5%, respectively. Animals were kept under a photo schedule of 12 h light and 12 h dark cycle and given access to food and purified water ad libitum. […] A freshly prepared carrageenan solution (1%w/v, 0.1 mL) was injected into the plantar side of each rat's right hind paw. […] The paw volume was measured using a plethysmometer using the mercury displacement method after 5 h of carrageenan injection.

gastric mucosa = assay: Effect on the gastric mucosa (ulcerogenic effect); format: in vivo, Wistar rats; conditions: 2.57 mg/kg oral, six hours after administration, rats
Experimental: GI side effects were assessed six hours after an oral administration in each group. Animals were euthanized, and stomachs were expelled, opened along the more prominent bend and washed with saline to remove gastric contents. Each stomach was analysed by another researcher, blinded to the treatment groups. The stomach was visually examined for the presence of any lesions, hyperaemia (red tinge) or haemorrhagic spots for evaluation of the presence of ulceration.

Compound	Selectivity (ratio of IC50 for COX-1 to COX-2) (human recombinant COX-2)	IC50 (human recombinant COX-2)	IC50 (ovine COX-1)	COX-2 selectivity, in words (human recombinant COX-2)	Anti-inflammatory activity (inhibition of paw oedema), in words [1]	COX-2 inhibition, in words (human recombinant COX-2)	Ulcerogenic effect (visual examination of stomach), in words (gastric mucosa)
COc1ccc2c(c1)c(CC(=O)Nc1ccccc1)c(C)n2C(=O)c1ccc(Cl)cc1 [Compound 3a, 2-(1(4-chlorobenzoyl),5-methoxy-2-methyl-1H-indol-3-yl)-N-phenylacetamide]	2.04	2.97 ± 0.11 µM	6.04 ± 0.14 µM	–	–	–	–
COc1ccc2c(c1)c(CC(=O)Nc1ccccc1Cl)c(C)n2C(=O)c1ccc(Cl)cc1 [Compound 3b, 2-(1-(4-chlorobenzoyl),5-methoxy-2-methyl-1H-indol-3-yl)-N-(2-chlorophenyl)acetamide]	1.41	3.28 ± 0.16 µM	4.61 ± 0.31 µM	–	–	–	–
COc1ccc2c(c1)c(CC(=O)Nc1ccc(F)c(Cl)c1)c(C)n2C(=O)c1ccc(Cl)cc1 [Compound 3c, N-(3-chloro-4-fluorophenyl)-2-(1-(4-chlorobenzoyl)-5-methoxy-2-methyl-1H-indol-3-yl)acetamide]	0.76	1.39 ± 0.32 µM	1.06 ± 0.1 µM	less than indomethacin	comparable anti-inflammatory activity with the standard	–	–
COc1ccc2c(c1)c(CC(=O)Nc1ccc(F)cc1)c(C)n2C(=O)c1ccc(Cl)cc1 [Compound 3d, 2-(1-(4-chlorobenzoyl)-5-methoxy-2-methyl-1H-indol-3-yl)-N-(4-fluorophenyl)acetamide]	–	–	5 ± 0.47 µM	–	–	–	–
COc1ccc2c(c1)c(CC(=O)Nc1ccc([N+](=O)[O-])cc1)c(C)n2C(=O)c1ccc(Cl)cc1 [Compound 3e, 2-(1-(4-chlorobenzoyl)-5-methoxy-2-methyl-1H-indol-3-yl)-N-(4-nitrophenyl)acetamide]	3.32	0.344 µM and 0.34 µM	1.15 ± 0.3 µM	highest selectivity ratio; also recorded: excellent selectivity ratio as compared with the standard	comparable anti-inflammatory activity with the standard	comparable COX-2 inhibition potential to indomethacin; also recorded: particularly significant activity against the COX-2 enzyme	devoid of GI side effects such as ulceration
COc1ccc2c(c1)c(CC(=O)Nc1c(Cl)cccc1Cl)c(C)n2C(=O)c1ccc(Cl)cc1 [Compound 3g, 2-(1-(4-chlorobenzoyl)-5-methoxy-2-methyl-1H-indol-3-yl)-N-(2,6-dichlorophenyl)acetamide]	1.42	2.91 ± 0.38 µM	4.14 ± 0.25 µM	–	–	–	–
COc1ccc2c(c1)c(CC(=O)NCc1ccccc1)c(C)n2C(=O)c1ccc(Cl)cc1 [Compound 3h, N-benzyl-2-(1-(4-chlorobenzoyl)-5-methoxy-2-methyl-1H-indol-3-yl)acetamide]	1.06	4.73 ± 0.15 µM	4.99 ± 0.11 µM	–	–	low inhibitory action against COX-2	–
COc1ccc2c(c1)c(CC(=O)Nc1cccc(C)c1)c(C)n2C(=O)c1ccc(Cl)cc1 [Compound 3i, 2-(1-(4-chlorobenzoyl)-5-methoxy-2-methyl-1H-indol-3-yl)-N-m-tolylacetamide]	1.12	4.22 ± 0.23 µM	4.71 ± 0.22 µM	–	–	low inhibitory action against COX-2	–
COc1ccc2c(c1)c(CC(=O)O)c(C)n2C(=O)c1ccc(Cl)cc1 [Indomethacin, 2-(1-(4-chlorobenzoyl)-5-methoxy-2-methyl-1-H-indol-3-yl)acetic acid]	–	–	–	–	significant inhibition of oedema formation	–	small lesions and red colouration; also recorded: small lesions and ulcers
